Reference: US20240150294A1, “ESTROGEN RECEPTOR ALPHA ANTAGONISTS AND USES THEREOF” (The University of Chicago, priority 2021, published 2024)

Legend:
Assay type in all cases: cell-based
[1] = test system: MCF7 breast cancer cells; test: Cellular proliferation of MCF7 breast cancer cells, 150 hours; conditions: 1 nM E2 + 1 μM compound, serum-starved 48 hours
Description: The abilities of exemplary compounds of formula (I) to inhibit the cellular proliferation of MCF7 breast cancer cells were measured. Cells were serum-starved for 48 hours before they were treated with either vehicle (DMSO), 1 nM hormone (estradiol [E2]), or 1 nM E2+1 μM compound in triplicate for 150 hours.

[2] = test system: MCF7 breast cancer cells; test: Crystal violet endpoint assay of MCF7 cellular viability; conditions: 500 nM, in the presence of 1 nM E2, 1 week
Excerpt: A crystal violet endpoint assay is useful for obtaining quantitative information about the relative density of cells adhering to multi-well cluster dishes. The crystal violet dye stains DNA. Upon solubilization, the amount of dye taken up by the monolayer can be quantified in a spectrophotometer or plate reader when the absorbance of each well is read at 570 nm. A crystal violet assay kit to measure cell viability is commercially available (e.g., Abcam, Cambridge, MA). All antagonist treatments were performed in the presence of 1 nM hormone (E2) for 1 week.

[3] = molecular target: T1, ERα (Homo sapiens, UniProt P03372); test: Transcriptional reporter gene assay (estrogen response element-GFP) in MCF7 cells; conditions: ERE-controlled green fluorescent protein, reduction in fluorescence
T1 construct: endogenous in cells; host or cells: MCF7
T1 sequence (P03372 1-595): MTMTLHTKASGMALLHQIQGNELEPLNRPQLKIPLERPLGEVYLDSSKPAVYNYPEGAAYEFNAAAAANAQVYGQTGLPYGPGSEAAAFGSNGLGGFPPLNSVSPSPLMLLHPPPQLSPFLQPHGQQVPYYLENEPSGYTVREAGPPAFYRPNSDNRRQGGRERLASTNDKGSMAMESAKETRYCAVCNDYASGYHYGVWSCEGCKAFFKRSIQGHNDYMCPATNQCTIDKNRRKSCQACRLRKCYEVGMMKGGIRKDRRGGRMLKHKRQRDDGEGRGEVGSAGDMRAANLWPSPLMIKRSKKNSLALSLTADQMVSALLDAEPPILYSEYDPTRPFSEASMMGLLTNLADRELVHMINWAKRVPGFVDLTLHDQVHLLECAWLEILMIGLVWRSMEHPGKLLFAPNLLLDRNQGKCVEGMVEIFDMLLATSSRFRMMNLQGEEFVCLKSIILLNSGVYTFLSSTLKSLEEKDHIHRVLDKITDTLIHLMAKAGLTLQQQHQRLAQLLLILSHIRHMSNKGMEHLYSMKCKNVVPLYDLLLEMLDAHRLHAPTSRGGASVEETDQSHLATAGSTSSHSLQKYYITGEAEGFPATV
Description: The reduction in fluorescence was measured and the IC50 value (nM) was determined for various compounds of formula (I) in comparison to known antagonists.

[4] = test system: halo-ERα; test: ERα cellular stability, live-cell halo-ERα assay in T47D breast cancer cells; conditions: 0 to 10 μM, 24 hours
Description: T47D breast cancer cell lines were generated with stable Tet-ON wild type (WT), Y537S mutation, or D538G halo-ERα mutation and enriched through flow sorting. Cells were cultured for 48 hours in media supplemented with charcoal-stripped fetal bovine serum (FBS) in puromycin. Subsequently, 1 μg/mL doxycycline was added to induce expression and 1 μM G618 antibody was added to follow the expression of the halo-tagged proteins. Cells were then treated with increasing concentrations of a compound of interest between 0 and 10 μM for 24 hours. After treatment, cells were imaged using an INUCYTE™ S3 (Essen BioScience, Ann Arbor, MI). ERα degradation was quantified by using the red channel integrated intensity per image normalized to phase channel confluence area.
Tissue specific activities often correlate with a molecule's influence on ERα levels.

SMILES: CCCN1CC(COc2ccc(C3c4ccc(O)cc4CC4(CC4)N3C(=O)c3ccccc3)cc2)C1 (stereo not drawn) [Compound 4]
- anti-proliferative activities (fold-change in cell count versus starting cell count) [1]: improved anti-proliferative activities compared to an ethylazetidine

SMILES: CC1Cc2cc(O)ccc2C(c2ccc(OCC3CCN(CCCF)C3)cc2)N1C(=O)c1ccccc1 [35(R)]
- anti-proliferative activities (fold-change in cell count versus starting cell count) [1]: modestly reduced the anti-proliferative activities compared compound 29

SMILES: CCN1CCC(CCOc2ccc(C3c4ccc(O)cc4CC4(CC4)N3C(=O)c3ccccc3)cc2)C1 (stereo not drawn) [Compound 13]
- induction of apoptosis (cellular viability) [2]: appear to induce apoptosis
- IC50 [3]: 0.021 µM

SMILES: CCNCCOc1ccc(C2c3ccc(O)cc3CC3(CC3)N2C(=O)c2ccccc2)cc1 (stereo not drawn) [Compound 21]
- IC50 [3]: 0.222 µM

SMILES: CCN1CCC(Oc2ccc(C3c4ccc(O)cc4CC4(CC4)N3C(=O)c3ccccc3)cc2)C1 (stereo not drawn) [Compound 12]
- IC50 [3]: 0.0588 µM

SMILES: CCCN1CCC(CNc2ccc(C3c4ccc(O)cc4CC4(CC4)N3C(=O)c3ccccc3)cc2)C1 (stereo not drawn) [Compound 26]
- anti-proliferative activities (fold-change in cell count versus starting cell count) [1]: reduced anti-proliferative activities compared to compound 14

SMILES: CCCN1CC(Oc2ccc(C3c4ccc(O)cc4CC4(CC4)N3C(=O)c3ccccc3)cc2)C1 (stereo not drawn) [Compound 2]
- IC50 [3]: 0.13 µM

SMILES: O=C(c1ccccc1)N1C(c2ccc(OCCN3CCCCC3)cc2)c2ccc(O)cc2CC12CC2 (stereo not drawn) [Compound 6]
- IC50 [3]: 0.0234 µM

SMILES: O=C(c1ccccc1)N1C(c2ccc(CCC3CCN(CCCF)C3)cc2)c2ccc(O)cc2CC12CC2 (stereo not drawn) [Compound 25]
- anti-proliferative activities (fold-change in cell count versus starting cell count) [1]: reduced anti-proliferative activities compared to compound 14

SMILES: O=C(c1ccccc1)N1C(c2ccc(OCCN3CCCCCC3)cc2)c2ccc(O)cc2CC12CC2 (stereo not drawn) [Compound 5]
- IC50 [3]: 0.0494 µM

SMILES: CCN1CC(Oc2ccc(C3c4ccc(O)cc4CC4(CC4)N3C(=O)c3ccccc3)cc2)C1 (stereo not drawn) [Compound 1]
- influence on ERα levels (SERM-like / SERD-like profile) [4]: weak SERD-like profile
- IC50 [3]: 0.358 µM

SMILES: CCCCN1CCC(COc2ccc(C3c4ccc(O)cc4CC4(CC4)N3C(=O)c3ccccc3)cc2)C1 (stereo not drawn) [Compound 22]
- anti-proliferative activities (fold-change in cell count versus starting cell count) [1]: did not enhance anti-proliferative activities compared to compound 14

SMILES: CC1Cc2cc(O)ccc2C(c2ccc(OC[C@H]3CCN(CCCF)C3)cc2)N1C(=O)c1ccccc1 (stereo partly drawn) [35(S)]
- anti-proliferative activities (fold-change in cell count versus starting cell count) [1]: modestly reduced the anti-proliferative activities compared compound 29

SMILES: CCCN1CCC(CCc2ccc(C3c4ccc(O)cc4CC4(CC4)N3C(=O)c3ccccc3)cc2)C1 (stereo not drawn) [Compound 24]
- anti-proliferative activities (fold-change in cell count versus starting cell count) [1]: reduced anti-proliferative activities compared to compound 14

SMILES: CC1CCN(CCOc2ccc(C3c4ccc(O)cc4CC4(CC4)N3C(=O)c3ccccc3)cc2)C1 (mixture of isomers) [Compound 16]
- IC50 [3]: 0.00385 µM

SMILES: O=C(c1ccccc1)N1C(c2ccc(OCC3CCN(CCCF)C3)cc2)c2ccccc2CC12CC2 (stereo not drawn) [Compound 34]
- anti-proliferative activities (fold-change in cell count versus starting cell count) [1]: ablated anti-proliferative activities

SMILES: CC1=C(c2ccc(O)cc2)[C@H](c2ccc(OCCN3CC[C@@H](C)C3)cc2)Oc2cc(O)ccc21 [OP1074, reference compound]
- IC50 [3]: 0.00017 µM

SMILES: C[C@H]1CCN(CCOc2ccc(C3c4ccc(O)cc4CC4(CC4)N3C(=O)c3ccccc3)cc2)C1 (stereo partly drawn) [Compound 15]
- IC50 [3]: 0.0048 µM

SMILES: O=C(c1ccccc1)N1C(c2ccc(OCC3CCN(CCCF)C3)cc2)c2ccc(O)cc2CC12CC2 (stereo not drawn) [Compound 29]
- anti-proliferative activities (fold-change in cell count versus starting cell count) [1]: enhanced anti-proliferative activities

SMILES: CCCN1CCC(CSc2ccc(C3c4ccc(O)cc4CC4(CC4)N3C(=O)c3ccccc3)cc2)C1 (stereo not drawn) [Compound 27]
- anti-proliferative activities (fold-change in cell count versus starting cell count) [1]: did not show an appreciable difference in anti-proliferative activities compared to compound 14

SMILES: CNCCOc1ccc(C2c3ccc(O)cc3CC3(CC3)N2C(=O)c2ccccc2)cc1 (stereo not drawn) [Compound 20]
- IC50 [3]: 0.5 µM

SMILES: CCCCCN1CCC(COc2ccc(C3c4ccc(O)cc4CC4(CC4)N3C(=O)c3ccccc3)cc2)C1 (stereo not drawn) [Compound 23]
- anti-proliferative activities (fold-change in cell count versus starting cell count) [1]: did not enhance anti-proliferative activities compared to compound 14

SMILES: CN(C)CCOc1ccc(C2c3ccc(O)cc3CC3(CC3)N2C(=O)c2ccccc2)cc1 (stereo not drawn) [Compound 19]
- IC50 [3]: 0.744 µM

SMILES: CCCN1CCC(COc2ccc(C3c4ccc(O)cc4CC4(CC4)N3C(=O)c3ccccc3)cc2)C1 (stereo not drawn) [Compound 14]
- induction of apoptosis (cellular viability) [2]: appear to induce apoptosis
- IC50 [3]: 0.019 µM
